# Laboratory results taken from publication PMC12186843, “Targeting GABAergic Hypofunction Associated with Schizophrenia: Identification of α1β2γ2GABA‑A Receptor Ligands with Neuroprotective and Antipsychotic Properties” (ACS Chemical Neuroscience, 2025).
# How the values were obtained:
# MDR1-MDCKII cell line = test: A–B and B–A permeability assay in MDR1-MDCKII cell line
# Method: The A–B and B–A permeability assay using the MDR1-MDCKII cell line was conducted at Eurofins Discovery according to a well-established protocol.
# Wistar rats [1] = test: Amphetamine-induced hyperlocomotion; assay type: in vivo, rat; details: i.p., doses of 3.0 mg/kg and 10.0 mg/kg, amphetamine 1.0 mg/kg i.p., p < 0.01
# Method: (§1) 8 (A). […] The dose of 0 mg/kg corresponds to subjects treated with vehicle and amphetamine (1.0 mg/kg, i.p.). Data are presented as the mean ± SEM (n = 8). One-way ANOVA F(3,28)=0.2, p > 0.05, one-way ANOVA F(3,28)=[…], p < 0.01**. (B). […] The dose of 0 mg/kg corresponds to subjects treated with vehicle and MK-801 (0.3 mg/kg, i.p.). Data are presented as the mean ± SEM (n = 8). ** p < 0.01, Newman-Keuls test, F(3,28)=5.29, p = 0.005. (C) Effects of compound 9, administered at doses ranging from 1 to 10 mg/kg, on spontaneous locomotor activity in rats. Data are presented as the mean ± SEM (n = 8). One-way ANOVA F(3,28) = 0.3, p > 0.05, one-way ANOVA F(3,28) = 6.7, p < 0.01*.
# (§2) All behavioral procedures were conducted using drug-naive male Wistar rats (Charles River, Sulzfeld, Germany), (n = 8/per group). Animals were housed in groups of four per standard plastic cage under controlled environmental conditions (temperature: 22 ± 1 °C, humidity: 60%, and a 12:12 light-dark cycle with lights on at 07:00 a.m.). […]
# (§3) All procedures were performed in a sound-attenuated experimental room between 9:00 a.m. and 3:00 p.m. […] Locomotor activity was measured in black octagonal cages (80 cm diameter, 30 cm height) amid dim lighting and constant white noise (65 dB). […] Locomotor activity (cm/30 min) was recorded and analyzed using an automated motion monitoring system (Videomot, TSE, Bad Homburg, Germany). […]
# Wistar rats [2] = test: MK-801-induced hyperlocomotion; assay type: in vivo, rat; details: i.p., 1, 3 and 10 mg/kg, significant effect at 10 mg/kg, MK-801 0.3 mg/kg i.p.
# Method: as §1, §2, §3
# Wistar rats [3] = test: Prepulse inhibition (PPI) test with MK-801; assay type: in vivo, rat; details: i.p.
# Method: as §2, with “a.m.). Animals were obtained from the breeder 2 weeks prior to the initiation of behavioral procedures, during which time they were weighed and handled multiple times. Animals had ad libitum access to tap water and standard laboratory chow (Labofeed H, WPIK, Kcynia, Poland).” for “a.m.).”
# The PPI apparatus consisted of eight startle chambers (SR-LAB, San Diego Instruments, San Diego, CA, USA). […] Startle responses, reflecting the movement of animals within the cylinder following an acoustic stimulus, were measured with a piezoelectric transducer positioned beneath the frame. […]
# The preliminary stimuli were followed by 60 trials of varying intensities presented in random order, with a mean intertrial interval (ITI) of 22.5 s. […] Startle amplitudes were calculated as the average response across 10 trials for each stimulation type. […] Startle responses (in manufacturer’s arbitrary units), and magnitudes of PPI (%) were analyzed with the aid of a one-way analysis of variance (ANOVA). […]
# [4] = rats, i.p., 3 mg/kg, ref Mordyl, B. et al. J. Med. Chem. 2024, 67 (24), 21859–21889, cited from earlier work
structure (smiles),measurement,setting,value
"Cc1ccc2nc(-c3ccc(F)cc3)c(CC(=O)N3CCCC3)n2c1.O=C(O)C(O)C(O)C(=O)O [Compound 17, 2-(4-Fluorophenyl)-6-methyl-3-(2-oxo-2-(pyrrolidin-1-yl)-ethyl)imidazo[1,2-a]pyridin-1-ium 3-carboxy-2,3-dihydroxy-propanoate]",Substrate for P-glycoprotein (P-gp) efflux,MDR1-MDCKII cell line; MDCK-MDR1 permeability assay,not to be a substrate
same,Permeability A–B,"MDR1-MDCKII cell line; pH 7.4/7.4, 6 and 17 at 10 μM",55.6 10^–6 cm/s
same,Permeability B–A,"MDR1-MDCKII cell line; pH 7.4/7.4, 6 and 17 at 10 μM",29.7 10^–6 cm/s
same,Effect on amphetamine-induced hyperlocomotion,Wistar rats [1],significantly reduced amphetamine-induced hyperlocomotion
same,Effect on MK-801-induced hyperlocomotion,Wistar rats [2],reduced hyperlocomotion
same,Effect on basic startle response,"Wistar rats [3]; F(3,28) = 1.66, p = 0.2",did not affect significantly basic startle response
same,Effect on MK-801-induced PPI deficits,"Wistar rats [3]; prestimulus of 84 and 90 dB, p = 0.82 and p = 0.72",the effect did not reach statistical significance
same,t0.5 Plasma,"[4]; n=6, plasma, terminal half life",249 min
same,AUC0→t Brain,"[4]; n=6, brain",8229 ng·min/g
same,Cmax Brain,"[4]; n=6, brain",219.5 ng/g
same,MRT Brain,"[4]; n=6, brain",102.5 min
same,tmax Brain,"[4]; n=6, brain",5 min
same,t0.5 Brain,"[4]; n=6, brain, terminal half life",653.2 min
same,AUC0→t Plasma,"[4]; n=6, plasma",128271 ng·min/mL
same,MRT Plasma,"[4]; n=6, plasma",50.9 min
same,tmax Plasma,"[4]; n=6, plasma",5 min
